Measured values: ChEMBL document CHEMBL1148458, “Incorporating molecular shape into the alignment-free Grid-Independent Descriptors” (J Med Chem, 2004)

Legend:
Plasmepsin II = Plasmepsin II (Plasmodium falciparum, UniProt P46925); test: Binding affinity towards plasmepsin-2 in Plasmodium falciparum.
Cathepsin D = Cathepsin D (Homo sapiens, UniProt P07339); test: Binding affinity towards human cathepsin D.
Adenosine receptor A1 = molecular target: T1, Adenosine receptor A1 (Homo sapiens, UniProt P30542); test: Binding affinity at adenosine A1 receptor.
T1 sequence (P30542 whole entry): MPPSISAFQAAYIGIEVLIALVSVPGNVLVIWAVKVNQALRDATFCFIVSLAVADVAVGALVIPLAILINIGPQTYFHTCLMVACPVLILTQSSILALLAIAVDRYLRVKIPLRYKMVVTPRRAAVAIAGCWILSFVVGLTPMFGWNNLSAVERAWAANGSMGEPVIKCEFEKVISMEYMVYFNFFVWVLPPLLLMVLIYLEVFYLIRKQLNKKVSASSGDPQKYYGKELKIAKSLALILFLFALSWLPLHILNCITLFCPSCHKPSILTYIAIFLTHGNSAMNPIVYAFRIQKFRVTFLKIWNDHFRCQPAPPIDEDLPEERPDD

Sequence of Cathepsin D (P07339 65-162 limits assumed): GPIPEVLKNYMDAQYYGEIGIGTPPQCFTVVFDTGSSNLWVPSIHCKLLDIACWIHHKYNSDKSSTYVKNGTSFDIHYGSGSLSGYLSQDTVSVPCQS
Sequence of Cathepsin D (P07339 169-412 limits assumed): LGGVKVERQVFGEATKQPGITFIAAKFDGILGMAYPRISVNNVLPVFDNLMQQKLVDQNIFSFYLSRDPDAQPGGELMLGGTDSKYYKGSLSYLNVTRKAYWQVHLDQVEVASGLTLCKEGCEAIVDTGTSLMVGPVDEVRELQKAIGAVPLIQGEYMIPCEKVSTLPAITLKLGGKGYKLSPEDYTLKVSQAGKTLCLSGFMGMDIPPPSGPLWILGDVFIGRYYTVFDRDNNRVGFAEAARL
Sequence of Plasmepsin II (P46925 whole entry): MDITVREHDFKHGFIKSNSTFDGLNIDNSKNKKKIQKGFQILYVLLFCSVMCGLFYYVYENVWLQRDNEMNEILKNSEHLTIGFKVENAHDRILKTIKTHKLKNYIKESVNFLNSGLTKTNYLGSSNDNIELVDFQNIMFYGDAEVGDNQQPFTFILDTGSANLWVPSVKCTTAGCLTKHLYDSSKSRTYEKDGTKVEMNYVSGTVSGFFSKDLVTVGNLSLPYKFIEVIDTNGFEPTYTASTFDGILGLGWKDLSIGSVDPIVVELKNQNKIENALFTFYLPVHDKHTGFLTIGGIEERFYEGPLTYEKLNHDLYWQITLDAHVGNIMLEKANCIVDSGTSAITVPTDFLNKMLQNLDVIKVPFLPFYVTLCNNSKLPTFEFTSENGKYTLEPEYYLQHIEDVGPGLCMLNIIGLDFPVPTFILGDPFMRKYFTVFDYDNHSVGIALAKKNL

Row | Ki (Plasmepsin II) | Ki (Cathepsin D) | Ki (Adenosine receptor A1) | Compound
1 | 5800 nM | 110 nM | – | CCCCNC(=O)CC(O)C(Cc1ccccc1)NC(=O)C(NC(=O)COc1ccc2ccccc2c1)c1ccccc1 (stereo not given)
2 | – | – | 10800 nM | CC1C(=O)c2nc(CCCN3N=C(c4ccccc4)CCC3=O)[nH]c2N(C)C1=O (stereo not given)
3 | 600 nM | 3900 nM | – | CCC(C)C(NC(=O)CN1CCC(C(N)=O)(c2ccccc2)CC1)C(=O)NC(CC(C)C)C(O)CC(=O)NCCCc1ccccc1 (stereo not given)
4 | 5600 nM | 920 nM | – | CCCCNC(=O)CC(O)C(Cc1ccccc1)NC(=O)C(CC(C)C)NC(=O)COc1ccc2ccccc2c1 (stereo not given)
5 | – | – | 470 nM | CCCC1C(=O)c2nc(CCN3N=C(Cl)CCC3=O)[nH]c2N(C)C1=O (stereo not given)
6 | – | – | 6100 nM | CC1C(=O)c2nc(CCN3N=C(c4ccccc4)CCC3=O)[nH]c2N(C)C1=O (stereo not given)
7 | 12000 nM | 1300 nM | – | CCCCNC(=O)CC(O)C(Cc1ccccc1)NC(=O)C(Cc1ccccc1)NC(=O)COc1ccc2ccccc2c1 (stereo not given)
8 | – | – | 8800 nM | CC1C(=O)c2nc(CCCN3N=C(Cl)CCC3=O)[nH]c2N(C)C1=O (stereo not given)
9 | – | – | 370 nM | CC1C(=O)c2nc(CCCCN3N=C(Cl)CCC3=O)[nH]c2N(C)C1=O (stereo not given)
10 | > 30000 nM | 200 nM | – | CCCCNC(=O)CC(O)C(CC(C)C)NC(=O)C(CCC(N)=O)NC(=O)COc1ccc2ccccc2c1 (stereo not given)
11 | – | 1200 nM | – | CCCCNC(=O)CC(O)C(Cc1ccccc1)NC(=O)[C@@H](NC(=O)c1ccc(CN2CCCC2)cc1)[C@@H](C)CC (stereo not given in full)
12 | – | – | 380 nM | CCCC1C(=O)c2nc(CCCCN3N=C(c4ccccc4)CCC3=O)[nH]c2N(C)C1=O (stereo not given)
13 | 50 nM | 320 nM | – | CCCCNC(=O)CC(O)C(Cc1ccccc1)NC(=O)C(NC(=O)Cc1ccc2ccccc2c1)C(C)CC (stereo not given)
14 | – | – | 1200 nM | CCCC1C(=O)c2nc(CCCN3N=C(Cl)CCC3=O)[nH]c2N(C)C1=O (stereo not given)
15 | – | – | 760 nM | CCCC1C(=O)c2nc(CCN3N=C(c4ccccc4)CCC3=O)[nH]c2N(C)C1=O (stereo not given)
16 | – | – | > 100000 nM | CC1C(=O)c2nc(CN3N=C(Cl)CCC3=O)[nH]c2N(C)C1=O (stereo not given)

Row | Ki (Plasmepsin II) | Ki (Cathepsin D) | Ki (Adenosine receptor A1) | Compound
17 | – | – | 12700 nM | CC1C(=O)c2nc(CCCN3N=CCCC3=O)[nH]c2N(C)C1=O (stereo not given)
18 | 220 nM | 2400 nM | – | CCCCNC(=O)CC(O)C(CC(C)C)NC(=O)C(NC(=O)Cc1cc(OC)ccc1C)C(C)CC (stereo not given)
19 | – | – | 2270 nM | CCCC1C(=O)c2nc(CN3N=C(c4ccccc4)CCC3=O)[nH]c2N(C)C1=O (stereo not given)
20 | – | – | 14700 nM | CC1C(=O)c2nc(CCN3N=C(Cl)CCC3=O)[nH]c2N(C)C1=O (stereo not given)
21 | – | – | 810 nM | CCCC1C(=O)c2nc(CCCN3N=C(c4ccccc4)CCC3=O)[nH]c2N(C)C1=O (stereo not given)
22 | – | – | 2120 nM | CC1C(=O)c2nc(CCCCN3N=C(c4ccccc4)CCC3=O)[nH]c2N(C)C1=O (stereo not given)
23 | – | – | 190 nM | CCCC1C(=O)c2nc(CCCCN3N=C(Cl)CCC3=O)[nH]c2N(C)C1=O (stereo not given)
24 | – | – | 9200 nM | CCCC1C(=O)c2nc(CN3N=C(Cl)CCC3=O)[nH]c2N(C)C1=O (stereo not given)
25 | 500 nM | 1600 nM | – | CCCCNC(=O)CC(O)C(CC(C)C)NC(=O)C(NC(=O)Cc1cc(OC)ccc1C)C(C)C (stereo not given)
26 | – | – | 12800 nM | CC1C(=O)c2nc(CCN3N=CCCC3=O)[nH]c2N(C)C1=O (stereo not given)
27 | 90 nM | 50 nM | – | CCCCNC(=O)CC(O)C(CC(C)C)NC(=O)C(NC(=O)Cc1ccc2ccccc2c1)C(C)CC (stereo not given)
28 | 560 nM | 200 nM | – | CCCCNC(=O)CC(O)C(CC(C)C)NC(=O)C(NC(=O)COc1ccc2ccccc2c1)c1ccccc1 (stereo not given)
29 | – | – | 53800 nM | CC1C(=O)c2nc(CN3N=C(c4ccccc4)CCC3=O)[nH]c2N(C)C1=O (stereo not given)
30 | 590 nM | 2100 nM | – | CCCCNC(=O)CC(O)C(CC(C)C)NC(=O)C(NC(=O)Cc1cc(OC)ccc1C)c1ccccc1 (stereo not given)
31 | 110 nM | 560 nM | – | CCCCNC(=O)C[C@H](O)[C@H](Cc1ccccc1)NC(=O)[C@@H](NC(=O)COc1ccc2ccccc2c1)C(C)CC (stereo not given in full)

Row | Compound | Ki (Plasmepsin II) | Ki (Cathepsin D) | Ki (Adenosine receptor A1)
32 | CCCCNC(=O)CC(O)C(CC(C)C)NC(=O)C(NC(=O)CN1CCC(C(N)=O)(c2ccccc2)CC1)C(C)CC (stereo not given) | 410 nM | 5500 nM | –
